Data set [1] deals with RR/PTCL. To be noted: historical benchmark, cited from earlier work.
A short description of data set [2]: Tolerability of compounds of formula I, nivolumab and their combination (adverse events). It is filed as in vivo, human. To be noted: for TRAE Anemia G1-2 / TRAE Anemia G3 / TRAE Anemia G4 / TRAE Diarrhea G1-2 / TRAE Diarrhea G3 / TRAE Diarrhea G4 / TRAE Fatigue G1-2 / TRAE Fatigue G3 / TRAE Fatigue G4 / TRAE Hypophospatemia G1-2 / TRAE Hypophospatemia G3 / TRAE Hypophospatemia G4 / TRAE Lymphocyte decrease G1-2 / TRAE Lymphocyte decrease G3 / TRAE Lymphocyte decrease G4 / TRAE Neutrophil decrease G1-2 / TRAE Neutrophil decrease G3 / TRAE Neutrophil decrease G4 / TRAE Platelet decrease G1-2 / TRAE Platelet decrease G3 / TRAE Platelet decrease G4 / TRAE WBC decrease G1-2 / TRAE WBC decrease G3 / TRAE WBC decrease G4: TRAE >= 5% frequency, by association. The procedure:
The tolerability of the compounds of formula I, nivolumab, and a combination of the compounds of formula I and nivolumab were tested. The Phase 2 clinical dosage of 30 mg BIW of the compounds of formula I was administered.

Data set [3] deals with relapsed or refractory peripheral T-cell lymphoma (RR/PTCL). Description: Phase 2 monotherapy in relapsed or refractory peripheral T-cell lymphoma. The data set is classed as in vivo, human. The method, then: The compounds of formula I were used as a monotherapy for relapsed or refractory peripheral T-cell lymphoma (“RR/PTCL”). A dosage of 40 mg biw was approved for this study. A summary of the results is found in Table 10. […] The time after prior treatment was 96 days (vs. 222 days for romidepsin P2 trial). […] The median PFS (months) was 7.6.

Data set [4] concerns tumor micro-environment (TME). Conditions: cited from earlier work.
The subject of data set [5] is RR/ATL. Description: Historical benchmarks for RR/ATL treatments. Conditions: Phase I, listed among benchmarks. The data set is classed as in vivo, human. The procedure: (§1) The compounds of formula I were used as a monotherapy for relapsed or refractory aggressive adult T-cell lymphoma (“RR/ATL”). A dosage of 40 mg biw was approved for this study. A summary of the results is found in Table 12. […] The time after prior treatment was 88 days (vs. 234 days for lenalidomide P2 trial). All patients had received mogamulizumab (“moga”) (lenalidomide ORR in moga patients was 18%).

In data set [6] the test system is relapsed or refractory aggressive adult T-cell lymphoma (RR/ATL). The data set is described as follows: Phase 2 monotherapy in relapsed or refractory aggressive adult T-cell lymphoma. It is filed as in vivo, human. Conditions: 20 evaluable, 40 mg biw monotherapy. The method, then: as §1
In data set [7] the test system is RR/ATL. To be noted: cited from earlier work; for ORR: historical benchmark, RR/ATL.
The mark [8] stands for this setting: 43 evaluable, 40 mg biw monotherapy.
[9] abbreviates: number of patients, 43 evaluable, 40 mg biw monotherapy.
[10] abbreviates: less frequent TRAEs associated with NIVO alone.

Where two headings read alike, the source gives them in different places.

The source of these data is US20200383961A1, “TRIPLET THERAPIES OF HDAC INHIBITORS, PD-L1 AND/OR PD-1 INHIBITORS, AND CTLA-4 INHIBITORS” (HUYA Bioscience International, LLC, priority 2019, published 2020).

For the molecule `Nc1cc(F)ccc1NC(=O)c1ccc(CNC(=O)/C=C/c2cccnc2)cc1` [Epidaza], the “ORR (PMS)” value in data set [1] (value in brackets, PMS) is recorded as 35%. For the same molecule, the ORR in data set [1] is reported as 28%.

As for `O=c1[nH]cnc2c([C@@H]3N[C@H](CO)[C@@H](O)[C@H]3O)c[nH]c12` [Forodesine], the ORR in data set [1] is 22%.

On to `Nc1cc(F)ccc1NC(=O)c1ccc(CNC(=O)/C=C/c2cccnc2)cc1` [HBI-8000, N-(2-amino-4-fluorophenyl)-4-[[[(2E)-1-oxo-3-(3-pyridinyl)-2-propen-1-yl]amino]methyl]benzamide], for which, in data set [2], the “TRAE Anemia G1-2” value was 14 (22) n (% of N), the “TRAE Anemia G3” value was 1 (2) n (% of N), the “TRAE Anemia G4” value is given as 0 n (% of N) and the “TRAE Diarrhea G1-2” value was 0 n (% of N). For the same molecule, in data set [2], the “TRAE Diarrhea G3” value was 0 n (% of N), the “TRAE Diarrhea G4” value is recorded as 0 n (% of N), the “TRAE Fatigue G1-2” value is listed as 0 n (% of N) and the “TRAE Fatigue G3” value is reported as 0 n (% of N). In data set [2], the “TRAE Fatigue G4” value is reported as 0 n (% of N), the “TRAE Hypophospatemia G1-2” value is reported as 6 (10) n (% of N), the “TRAE Hypophospatemia G3” value is reported as 4 (6) n (% of N) and the “TRAE Hypophospatemia G4” value is given as 0 n (% of N). Also, in data set [2], the “TRAE Lymphocyte decrease G1-2” value is listed as 0 n (% of N), the “TRAE Lymphocyte decrease G3” value is recorded as 0 n (% of N), the “TRAE Lymphocyte decrease G4” value was 0 n (% of N) and the “TRAE Neutrophil decrease G1-2” value is reported as 8 (13) n (% of N). In data set [2], the “TRAE Neutrophil decrease G3” value is 5 (8) n (% of N), the “TRAE Neutrophil decrease G4” value was 1 (2) n (% of N), the “TRAE Platelet decrease G1-2” value is recorded as 23 (37) n (% of N) and the “TRAE Platelet decrease G3” value is 3 (5) n (% of N). Further, in data set [2], the “TRAE Platelet decrease G4” value was 0 n (% of N), the “TRAE WBC decrease G1-2” value is recorded as 11 (17) n (% of N), the “TRAE WBC decrease G3” value is 1 (2) n (% of N) and the “TRAE WBC decrease G4” value is recorded as 0 n (% of N). Moreover, in data set [2] (among TRAEs, 63 subjects), the “share of TRAEs associated with the agent” value is reported as 39%. For the same molecule, in data set [3] (setting [8]), the DCR amounted to 74% and the ORR is listed as 46%. Moreover, in data set [3] (estimated, PD date by investigator judgement, FIG. 7A), the “median PFS” value is given as 7.6 months. Also, in data set [3] (setting [9]), the “Complete Responses” value was 4, the “Partial Responses” value came out at 16 and the “Stable Disease” value was 12. Moreover, in data set [4] ("cold" tumors), the “PD-1 and PD-L1 expression” value is on record as “increases”. In addition, in data set [4] (tumor cells), the “apoptosis scores and signatures” value was “increasing”. Further, in data set [4] (tumor micro-environment), the “conversion of M2 (suppressive) to M1 (antitumor) macrophages” value is recorded as “promotes”; the “influx of CD8+ T cells and NK cells” value is reported as “increases”; the “number and activity of regulatory T cells (TREGs), myeloid-derived suppressor cells (MDSCs)” value is “reduces”; the “ratio of active CD8+ effector T cells to "exhausted" CD8 T cells” value is given as “increases”. In data set [5], this molecule returned an ORR of 75%. Moreover, in data set [6], the DCR was 60% and the ORR came out at 40%. Besides, the “Stable Disease” value in data set [6] (number of patients) was 4. For the same molecule, the “Partial Responses” value in data set [6] (number of patients, all had received mogamulizumab) amounted to 8.

For `Nc1cccc2c1CN(C1CCC(=O)NC1=O)C2=O` (centres unmarked) [Lenalidomide], the ORR in data set [7] is 42%. Besides, the “ORR in moga patients” value in data set [7] (patients who had received mogamulizumab, lenalidomide P2 trial) is 18%.

As to `C#CCC(Cc1cnc2nc(N)nc(N)c2n1)c1ccc(C(=O)N[C@@H](CCC(=O)O)C(=O)O)cc1` (some centres unmarked) [Pralatrexate], the ORR in data set [1] is given as 45%.

Turning to “NIVO: fully human monoclonal antibody directed against PD-1”, in data set [2], the “TRAE Anemia G1-2” value is 0 n (% of N), the “TRAE Anemia G3” value was 0 n (% of N), the “TRAE Anemia G4” value was 0 n (% of N) and the “TRAE Diarrhea G1-2” value is listed as 4 (6) n (% of N). In data set [2], the “TRAE Diarrhea G3” value is reported as 1 (2) n (% of N), the “TRAE Diarrhea G4” value is reported as 0 n (% of N), the “TRAE Fatigue G1-2” value is on record as 0 n (% of N) and the “TRAE Fatigue G3” value was 0 n (% of N). For the same molecule, in data set [2], the “TRAE Fatigue G4” value is on record as 0 n (% of N), the “TRAE Hypophospatemia G1-2” value is given as 0 n (% of N), the “TRAE Hypophospatemia G3” value was 0 n (% of N) and the “TRAE Hypophospatemia G4” value is given as 0 n (% of N). In data set [2], the “TRAE Lymphocyte decrease G1-2” value is reported as 0 n (% of N), the “TRAE Lymphocyte decrease G3” value is on record as 0 n (% of N), the “TRAE Lymphocyte decrease G4” value is recorded as 0 n (% of N) and the “TRAE Neutrophil decrease G1-2” value was 0 n (% of N). Besides, in data set [2], the “TRAE Neutrophil decrease G3” value was 0 n (% of N), the “TRAE Neutrophil decrease G4” value is reported as 0 n (% of N), the “TRAE Platelet decrease G1-2” value was 0 n (% of N) and the “TRAE Platelet decrease G3” value is given as 0 n (% of N). In data set [2], the “TRAE Platelet decrease G4” value is 0 n (% of N), the “TRAE WBC decrease G1-2” value is given as 0 n (% of N), the “TRAE WBC decrease G3” value was 0 n (% of N) and the “TRAE WBC decrease G4” value is given as 0 n (% of N). In data set [2] (setting [10]), the “TRAE TSH increase” value is 5 n, the TRAE amylase increase is listed as 4 n, the TRAE lipase increase came to 6 n and the TRAE rash is reported as 10 n.

B1: Mogamulizumab: RR/ATL treatment, historical benchmark (antibody, chains of the INN, looked up, V domains shown)
VH: EVQLVESGGDLVQPGRSLRLSCAASGFIFSNYGMSWVRQAPGKGLEWVATISSASTYSYYPDSVKGRFTISRDNAKNSLYLQMNSLRVEDTALYYCGRHSDGNFAFGYWGQGTLVTVSS
VL: DVLMTQSPLSLPVTPGEPASISCRSSRNIVHINGDTYLEWYLQKPGQSPQLLIYKVSNRFSGVPDRFSGSGSGTDFTLKISRVEAEDVGVYYCFQGSLLPWTFGQGTKVEIK
Take B1: in data set [7], the ORR was 50%.
